Data as given in ChEMBL document CHEMBL4507291 (2021).

What was measured:
Details in all cases: Compound concentration 1.0 uM
[1] = biological target: T1, Rhodopsin kinase GRK7 (Homo sapiens) (UniProt Q8WTQ7); assay: GRK7 Kinase screen
T1 sequence (whole entry): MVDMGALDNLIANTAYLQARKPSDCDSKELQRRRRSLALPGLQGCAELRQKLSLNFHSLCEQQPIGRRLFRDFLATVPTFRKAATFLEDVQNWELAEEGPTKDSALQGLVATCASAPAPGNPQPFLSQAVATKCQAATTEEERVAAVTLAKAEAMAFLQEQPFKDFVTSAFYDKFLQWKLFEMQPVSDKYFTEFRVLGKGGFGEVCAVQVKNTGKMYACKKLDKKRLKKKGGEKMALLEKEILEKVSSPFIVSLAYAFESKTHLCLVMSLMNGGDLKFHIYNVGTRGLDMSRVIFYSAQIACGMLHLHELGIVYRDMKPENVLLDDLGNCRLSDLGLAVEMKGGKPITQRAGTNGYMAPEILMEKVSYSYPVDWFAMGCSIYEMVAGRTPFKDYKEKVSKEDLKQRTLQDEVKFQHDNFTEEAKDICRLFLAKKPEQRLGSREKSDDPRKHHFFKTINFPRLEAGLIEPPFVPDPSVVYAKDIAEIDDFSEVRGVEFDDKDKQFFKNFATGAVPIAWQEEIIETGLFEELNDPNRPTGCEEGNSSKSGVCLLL

[2] = biological target: T2, Serine/threonine-protein kinase Chk1 (Homo sapiens) (UniProt O14757); assay: CHEK1 (CHK1) Kinase screen
T2 sequence (whole entry): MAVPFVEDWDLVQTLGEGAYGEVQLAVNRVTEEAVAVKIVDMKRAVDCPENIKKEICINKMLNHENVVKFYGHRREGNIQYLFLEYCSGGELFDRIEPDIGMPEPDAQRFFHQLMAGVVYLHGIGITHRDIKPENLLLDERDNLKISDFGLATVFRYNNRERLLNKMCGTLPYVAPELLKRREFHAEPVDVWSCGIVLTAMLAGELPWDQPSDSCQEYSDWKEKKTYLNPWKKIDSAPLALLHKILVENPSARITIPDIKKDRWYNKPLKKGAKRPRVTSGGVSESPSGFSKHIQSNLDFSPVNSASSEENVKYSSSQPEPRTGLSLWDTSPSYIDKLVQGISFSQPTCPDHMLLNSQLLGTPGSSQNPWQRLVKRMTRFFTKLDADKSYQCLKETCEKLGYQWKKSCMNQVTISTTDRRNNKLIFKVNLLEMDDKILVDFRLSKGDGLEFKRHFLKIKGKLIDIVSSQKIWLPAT

[3] = biological target: T3, MAP/microtubule affinity-regulating kinase 4 (Homo sapiens) (UniProt Q96L34); assay: MARK4 Kinase screen
T3 sequence (whole entry): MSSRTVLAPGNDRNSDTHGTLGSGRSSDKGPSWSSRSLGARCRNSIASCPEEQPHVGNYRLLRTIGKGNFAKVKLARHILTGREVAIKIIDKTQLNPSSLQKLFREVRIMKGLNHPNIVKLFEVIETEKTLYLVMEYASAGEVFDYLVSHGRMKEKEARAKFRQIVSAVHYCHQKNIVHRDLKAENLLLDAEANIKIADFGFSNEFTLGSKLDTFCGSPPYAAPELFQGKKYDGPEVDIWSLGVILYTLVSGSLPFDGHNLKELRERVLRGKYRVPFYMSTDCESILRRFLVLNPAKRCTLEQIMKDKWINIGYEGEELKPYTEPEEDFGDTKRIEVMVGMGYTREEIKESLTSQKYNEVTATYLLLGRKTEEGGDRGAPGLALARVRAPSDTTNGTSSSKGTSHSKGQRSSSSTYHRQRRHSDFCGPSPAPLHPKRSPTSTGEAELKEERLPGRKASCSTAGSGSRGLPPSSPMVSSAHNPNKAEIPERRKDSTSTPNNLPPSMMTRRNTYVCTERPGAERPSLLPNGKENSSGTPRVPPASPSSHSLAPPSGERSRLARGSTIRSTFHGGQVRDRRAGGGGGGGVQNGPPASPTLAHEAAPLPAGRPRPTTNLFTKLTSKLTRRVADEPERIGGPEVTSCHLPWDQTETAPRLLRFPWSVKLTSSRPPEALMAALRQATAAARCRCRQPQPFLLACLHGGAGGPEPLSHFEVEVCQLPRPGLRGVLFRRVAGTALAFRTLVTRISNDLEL

[4] = biological target: Vascular endothelial growth factor receptor 2 (Homo sapiens) (UniProt P35968); assay: KDR (VEGFR2) Kinase screen
Sequence of Vascular endothelial growth factor receptor 2 (Homo sapiens) (P35968 whole entry): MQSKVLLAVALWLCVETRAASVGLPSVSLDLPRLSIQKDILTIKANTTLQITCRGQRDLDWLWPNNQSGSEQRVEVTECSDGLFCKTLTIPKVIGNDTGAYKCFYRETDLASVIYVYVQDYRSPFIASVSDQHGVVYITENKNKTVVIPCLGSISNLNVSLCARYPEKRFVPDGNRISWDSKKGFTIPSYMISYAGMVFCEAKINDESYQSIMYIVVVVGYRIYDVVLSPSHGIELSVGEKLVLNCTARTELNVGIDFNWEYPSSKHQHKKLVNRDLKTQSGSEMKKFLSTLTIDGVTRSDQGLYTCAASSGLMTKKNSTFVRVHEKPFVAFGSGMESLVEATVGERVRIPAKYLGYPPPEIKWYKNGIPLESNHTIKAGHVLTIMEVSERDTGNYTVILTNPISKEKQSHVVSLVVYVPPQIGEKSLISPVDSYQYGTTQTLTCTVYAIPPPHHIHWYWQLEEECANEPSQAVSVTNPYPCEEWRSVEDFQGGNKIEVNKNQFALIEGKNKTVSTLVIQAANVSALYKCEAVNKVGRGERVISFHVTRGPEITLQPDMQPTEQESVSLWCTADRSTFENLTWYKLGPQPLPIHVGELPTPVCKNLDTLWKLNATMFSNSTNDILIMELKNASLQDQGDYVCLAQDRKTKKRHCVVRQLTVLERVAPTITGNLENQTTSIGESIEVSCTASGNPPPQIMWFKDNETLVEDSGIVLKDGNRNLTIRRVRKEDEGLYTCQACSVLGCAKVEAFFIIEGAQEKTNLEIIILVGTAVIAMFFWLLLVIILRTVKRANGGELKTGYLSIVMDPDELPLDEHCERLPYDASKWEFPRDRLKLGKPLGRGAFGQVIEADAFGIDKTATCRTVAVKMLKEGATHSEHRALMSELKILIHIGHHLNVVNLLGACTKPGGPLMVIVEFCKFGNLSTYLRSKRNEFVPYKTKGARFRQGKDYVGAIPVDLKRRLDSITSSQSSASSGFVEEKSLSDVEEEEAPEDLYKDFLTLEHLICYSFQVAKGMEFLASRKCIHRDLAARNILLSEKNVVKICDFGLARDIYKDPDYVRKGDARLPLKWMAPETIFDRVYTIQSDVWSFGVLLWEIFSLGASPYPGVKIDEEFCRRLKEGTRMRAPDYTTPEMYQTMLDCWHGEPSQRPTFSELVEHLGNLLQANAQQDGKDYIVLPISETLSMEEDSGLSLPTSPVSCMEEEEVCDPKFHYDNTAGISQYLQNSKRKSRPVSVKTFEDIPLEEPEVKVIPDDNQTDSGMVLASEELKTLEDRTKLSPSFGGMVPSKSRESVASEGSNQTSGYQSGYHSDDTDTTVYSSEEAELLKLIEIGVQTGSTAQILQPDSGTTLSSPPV

[5] = PRKCB2 (PKC beta II) Kinase screen
[6] = biological target: Ephrin type-A receptor 7 (Homo sapiens) (UniProt Q15375); assay: EPHA7 Kinase screen
Sequence of Ephrin type-A receptor 7 (Homo sapiens) (Q15375 28-998 limits assumed): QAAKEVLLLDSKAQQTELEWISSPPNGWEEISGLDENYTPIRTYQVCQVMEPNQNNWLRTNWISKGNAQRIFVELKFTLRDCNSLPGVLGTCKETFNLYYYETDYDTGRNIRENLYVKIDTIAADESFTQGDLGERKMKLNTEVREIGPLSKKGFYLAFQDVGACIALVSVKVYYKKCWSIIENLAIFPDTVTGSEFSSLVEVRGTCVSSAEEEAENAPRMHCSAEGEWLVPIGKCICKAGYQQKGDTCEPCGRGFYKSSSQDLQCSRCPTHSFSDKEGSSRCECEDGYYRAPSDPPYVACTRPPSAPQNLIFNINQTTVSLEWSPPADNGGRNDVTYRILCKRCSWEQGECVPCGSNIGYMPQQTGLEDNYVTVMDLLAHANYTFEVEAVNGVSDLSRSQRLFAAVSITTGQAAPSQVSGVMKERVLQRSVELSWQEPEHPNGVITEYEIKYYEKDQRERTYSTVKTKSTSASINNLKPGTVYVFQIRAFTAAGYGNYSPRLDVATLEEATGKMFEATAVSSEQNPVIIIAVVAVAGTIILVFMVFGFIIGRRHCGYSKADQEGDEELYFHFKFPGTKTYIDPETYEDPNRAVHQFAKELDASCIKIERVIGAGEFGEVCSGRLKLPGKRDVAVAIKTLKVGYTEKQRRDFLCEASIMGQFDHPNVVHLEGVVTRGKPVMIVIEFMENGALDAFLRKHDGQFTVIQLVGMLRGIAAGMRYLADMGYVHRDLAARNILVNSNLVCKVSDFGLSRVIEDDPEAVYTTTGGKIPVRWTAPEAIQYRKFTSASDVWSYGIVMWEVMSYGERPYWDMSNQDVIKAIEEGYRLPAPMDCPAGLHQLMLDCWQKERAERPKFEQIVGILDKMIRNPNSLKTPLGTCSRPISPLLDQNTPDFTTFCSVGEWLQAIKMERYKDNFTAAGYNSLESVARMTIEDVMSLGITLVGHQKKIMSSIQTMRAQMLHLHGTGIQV

[7] = biological target: Mitogen-activated protein kinase 10 (Homo sapiens) (UniProt P53779); assay: MAPK10 (JNK3) Kinase screen
Sequence of Mitogen-activated protein kinase 10 (Homo sapiens) (P53779 whole entry): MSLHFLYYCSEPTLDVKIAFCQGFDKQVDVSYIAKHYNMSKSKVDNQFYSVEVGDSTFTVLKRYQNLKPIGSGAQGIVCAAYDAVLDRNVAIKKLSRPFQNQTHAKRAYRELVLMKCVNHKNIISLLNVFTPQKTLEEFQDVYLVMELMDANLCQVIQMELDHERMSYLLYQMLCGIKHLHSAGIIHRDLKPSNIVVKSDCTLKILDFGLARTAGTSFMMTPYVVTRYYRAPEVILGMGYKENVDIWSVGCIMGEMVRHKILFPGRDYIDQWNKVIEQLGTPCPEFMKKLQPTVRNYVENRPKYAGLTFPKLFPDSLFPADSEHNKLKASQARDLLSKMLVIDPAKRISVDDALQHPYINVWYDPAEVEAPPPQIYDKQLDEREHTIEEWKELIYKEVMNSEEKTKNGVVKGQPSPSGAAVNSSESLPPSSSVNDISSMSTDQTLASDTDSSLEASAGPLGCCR

[8] = biological target: Fibroblast growth factor receptor 2 (Homo sapiens) (UniProt P21802); assay: FGFR2 Kinase screen
Sequence of Fibroblast growth factor receptor 2 (Homo sapiens) (P21802 22-821 limits assumed): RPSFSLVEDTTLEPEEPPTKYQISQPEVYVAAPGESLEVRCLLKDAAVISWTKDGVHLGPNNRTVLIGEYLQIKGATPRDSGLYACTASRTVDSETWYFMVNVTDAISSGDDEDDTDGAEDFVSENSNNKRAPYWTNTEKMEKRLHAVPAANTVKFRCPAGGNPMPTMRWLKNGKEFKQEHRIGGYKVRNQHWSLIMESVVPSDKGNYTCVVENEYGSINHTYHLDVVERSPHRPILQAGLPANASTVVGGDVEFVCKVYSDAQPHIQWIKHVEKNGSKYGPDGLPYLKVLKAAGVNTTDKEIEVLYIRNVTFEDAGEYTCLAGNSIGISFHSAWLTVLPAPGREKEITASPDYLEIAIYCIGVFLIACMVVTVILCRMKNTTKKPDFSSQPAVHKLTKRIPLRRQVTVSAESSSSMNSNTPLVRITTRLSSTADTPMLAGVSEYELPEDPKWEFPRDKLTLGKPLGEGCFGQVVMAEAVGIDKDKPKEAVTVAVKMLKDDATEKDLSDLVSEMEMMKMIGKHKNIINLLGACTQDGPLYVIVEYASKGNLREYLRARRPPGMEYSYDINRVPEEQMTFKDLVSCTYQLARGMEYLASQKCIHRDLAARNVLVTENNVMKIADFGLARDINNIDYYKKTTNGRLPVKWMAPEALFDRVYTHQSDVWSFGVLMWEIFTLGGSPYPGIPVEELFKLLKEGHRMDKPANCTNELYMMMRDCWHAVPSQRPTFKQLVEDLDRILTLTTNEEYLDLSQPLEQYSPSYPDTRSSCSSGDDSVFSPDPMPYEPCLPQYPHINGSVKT

[9] = biological target: Tyrosine-protein kinase JAK1 (Homo sapiens) (UniProt P23458); assay: JAK1 Kinase screen
Sequence of Tyrosine-protein kinase JAK1 (Homo sapiens) (P23458 whole entry): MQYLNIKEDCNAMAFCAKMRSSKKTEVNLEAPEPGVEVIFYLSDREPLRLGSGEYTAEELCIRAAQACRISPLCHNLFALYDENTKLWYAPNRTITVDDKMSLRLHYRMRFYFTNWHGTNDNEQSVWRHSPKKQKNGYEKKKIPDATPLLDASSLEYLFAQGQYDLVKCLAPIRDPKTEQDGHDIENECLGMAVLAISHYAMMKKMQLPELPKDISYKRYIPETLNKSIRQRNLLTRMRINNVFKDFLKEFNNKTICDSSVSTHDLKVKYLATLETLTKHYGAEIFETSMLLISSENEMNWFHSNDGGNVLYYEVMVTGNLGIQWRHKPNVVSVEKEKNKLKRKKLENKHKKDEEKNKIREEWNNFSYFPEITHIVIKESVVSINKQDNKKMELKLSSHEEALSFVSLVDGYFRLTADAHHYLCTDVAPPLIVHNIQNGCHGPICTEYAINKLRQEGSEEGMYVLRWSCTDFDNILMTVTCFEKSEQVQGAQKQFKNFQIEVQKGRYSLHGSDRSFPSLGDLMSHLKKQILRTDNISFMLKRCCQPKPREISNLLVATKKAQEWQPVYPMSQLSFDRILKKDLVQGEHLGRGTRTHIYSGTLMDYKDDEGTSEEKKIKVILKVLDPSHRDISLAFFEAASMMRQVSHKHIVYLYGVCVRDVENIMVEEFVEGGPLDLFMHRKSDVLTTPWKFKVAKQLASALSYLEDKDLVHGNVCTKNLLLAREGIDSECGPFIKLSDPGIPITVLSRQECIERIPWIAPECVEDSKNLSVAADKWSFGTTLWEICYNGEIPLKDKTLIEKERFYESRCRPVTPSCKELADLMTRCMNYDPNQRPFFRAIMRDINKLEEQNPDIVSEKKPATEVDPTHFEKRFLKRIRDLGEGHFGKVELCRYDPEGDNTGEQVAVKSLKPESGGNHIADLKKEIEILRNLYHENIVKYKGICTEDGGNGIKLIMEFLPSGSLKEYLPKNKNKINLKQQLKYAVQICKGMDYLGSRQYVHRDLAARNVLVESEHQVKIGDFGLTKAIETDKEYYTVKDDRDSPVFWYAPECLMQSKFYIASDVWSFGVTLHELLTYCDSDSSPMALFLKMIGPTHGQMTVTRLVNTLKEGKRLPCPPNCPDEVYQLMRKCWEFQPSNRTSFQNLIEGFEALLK

[10] = biological target: T4, Ephrin type-B receptor 1 (Homo sapiens) (UniProt P54762); assay: EPHB1 Kinase screen
T4 sequence (whole entry): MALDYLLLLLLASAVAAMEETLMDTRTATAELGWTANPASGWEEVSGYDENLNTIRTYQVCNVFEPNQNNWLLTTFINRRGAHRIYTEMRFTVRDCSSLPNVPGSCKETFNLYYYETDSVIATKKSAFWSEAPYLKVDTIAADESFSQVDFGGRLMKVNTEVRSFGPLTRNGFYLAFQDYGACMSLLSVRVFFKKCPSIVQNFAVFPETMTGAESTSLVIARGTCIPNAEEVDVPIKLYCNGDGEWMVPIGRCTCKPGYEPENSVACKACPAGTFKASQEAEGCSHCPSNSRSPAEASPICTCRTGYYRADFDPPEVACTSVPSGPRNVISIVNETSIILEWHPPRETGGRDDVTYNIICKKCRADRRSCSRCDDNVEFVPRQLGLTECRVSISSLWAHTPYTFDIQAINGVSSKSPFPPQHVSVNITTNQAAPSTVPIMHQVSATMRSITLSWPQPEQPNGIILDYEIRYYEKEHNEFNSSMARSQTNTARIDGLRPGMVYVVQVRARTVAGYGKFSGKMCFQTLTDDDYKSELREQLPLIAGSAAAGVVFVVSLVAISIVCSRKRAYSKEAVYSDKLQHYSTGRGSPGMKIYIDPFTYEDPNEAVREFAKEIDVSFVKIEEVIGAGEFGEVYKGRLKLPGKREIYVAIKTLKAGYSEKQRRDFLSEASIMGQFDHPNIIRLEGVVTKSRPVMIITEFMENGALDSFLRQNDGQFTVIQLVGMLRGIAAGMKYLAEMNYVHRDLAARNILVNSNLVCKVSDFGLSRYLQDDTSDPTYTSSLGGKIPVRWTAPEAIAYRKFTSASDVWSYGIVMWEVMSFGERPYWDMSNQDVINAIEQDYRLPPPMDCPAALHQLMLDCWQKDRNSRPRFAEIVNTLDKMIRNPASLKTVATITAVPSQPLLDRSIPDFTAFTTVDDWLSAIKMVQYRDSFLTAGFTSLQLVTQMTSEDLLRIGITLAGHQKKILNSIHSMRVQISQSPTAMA

Measured: inhibition

C[C@@H]1CN(c2cc(-c3n[nH]c4ccc(OC5(C)CC5)cc34)ncn2)C[C@H](C)O1 [MLi-2]
inactive: [1] 4.4% | [2] -0.226% | [3] 15.7% | [4] 3.64% | [5] 10.4% | [6] 8.11% | [7] 13.6% | [8] -3.35% | [9] -2.46% | [10] 3.46%
